Laboratory results: US9890129B2, “Aminoalkylbenzothiazepine derivatives and uses thereof” (CJ Healthcare Corporation, priority 2014, dated 2018)

Test system: SD rats
Experiment: Feces excretion time and evaluation of efficiency (barium-containing diet, oral administration)
Type: in vivo, rat
Conditions: for Feces excretion time (min) @ volume (mg/kg): observed 10 hours
Procedure: Eight-week-old SD rats were purchased and allowed to adapt to breeding conditions under 12-hour illumination at 24° C. for 7 days. The rats were made to fast for 16 hours before the experimental day, and orally administered on the experimental day with a vehicle (0.5% methylcellulose) and a test material, […], respectively. Thirty minutes after the administration, the rats fed with 3 g of a barium-containing diet were placed into a metabolism cage and observed to record the time required for the barium to be excreted as feces in each rat after being passed through the intestines for 10 hours. Additionally, the percentage of rats that excreted barium-containing feces within 10 hours were calculated, and the results are shown in Table 1 below.

Row | SMILES | Percentage of subjects excreting feces within 10 hours (%) (0.1 mg/kg) | Feces excretion time (min) @ volume (mg/kg) (0.1 mg/kg) | Percentage of subjects excreting feces within 10 hours (%) (1 mg/kg) | Feces excretion time (min) @ volume (mg/kg) (1 mg/kg) | Percentage of subjects excreting feces within 10 hours (%) (5 mg/kg) | Feces excretion time (min) @ volume (mg/kg) (5 mg/kg)
1 | CCCCC1(CCCC)CN(c2ccccc2)c2cc(SC)c(CNCC(=O)O)cc2S(=O)(=O)C1 [Example 1, 2-(((3,3-dibutyl-7-methylthio-1,1-dioxido-5-phenyl-2,3,4,5-tetrahydrobenzo[b][1,4]thiazepine-8-yl)methyl)amino)acetic acid] | B @ 0.1 (B: 50-75%) | C @ 0.1 (C: 501-590 min) | A @ 1 (A: 76-100%) | B @ 1 (B: 401-500 min) | A @ 5 (A: 76-100%) | A @ 5 (A: 301-400 min)
2 | CCCCC1(CCCC)CN(c2ccccc2)c2cc(SC)c(CNC(=O)CS(=O)(=O)O)cc2S(=O)(=O)C1 [Example 18, 2-(((3,3-dibutyl-7-methylthio-1,1-dioxido-5-phenyl-2,3,4,5-tetrahydrobenzo[b][1,4]thiazepine-8-yl)methyl)amino)-2-oxoethanesulfonic acid] |  |  | B @ 1 (B: 50-75%) | B @ 1 (B: 401-500 min) |  | 
3 | CCCCC1(CCCC)CN(c2ccc(OC)cc2)c2cc(SC)c(CNCC(=O)O)cc2S(=O)(=O)C1 [Example 19, 2-(((3,3-dibutyl-5-(4-methoxyphenyl)-7-methylthio-1,1-dioxido-2,3,4,5-tetrahydrobenzo[b][1,4]thiazepine-8-yl)methyl)amino)acetic acid] |  |  | A @ 1 (A: 76-100%) | C @ 1 (C: 501-590 min) | A @ 5 (A: 76-100%) | B @ 5 (B: 401-500 min)
4 | CCCCC1(CCCC)CN(c2ccc(O)cc2)c2cc(SC)c(CNCC(=O)O)cc2S(=O)(=O)C1 [Example 20, 2-(((3,3-dibutyl-5-(4-hydroxyphenyl)-7-methylthio-1,1-dioxido-2,3,4,5-tetrahydrobenzo[b][1,4]thiazepine-8-yl)methyl)amino)acetic acid] | A @ 0.1 (A: 76-100%) | C @ 0.1 (C: 501-590 min) | A @ 1 (A: 76-100%) | B @ 1 (B: 401-500 min) | A @ 5 (A: 76-100%) | A @ 5 (A: 301-400 min)
5 | CCCCC1(CCCC)CN(c2ccc(F)cc2)c2cc(SC)c(CNCC(=O)O)cc2S(=O)(=O)C1 [Example 22, 2-(((3,3-dibutyl-5-(4-fluorophenyl)-7-methylthio-1,1-dioxido-2,3,4,5-tetrahydrobenzo[b][1,4]thiazepine-8-yl)methyl)amino)acetic acid] | A @ 0.1 (A: 76-100%) | B @ 0.1 (B: 401-500 min) | A @ 1 (A: 76-100%) | B @ 1 (B: 401-500 min) | A @ 5 (A: 76-100%) | A @ 5 (A: 301-400 min)
6 | CCCCC1(CCCC)CN(c2ccc(OC)c(F)c2)c2cc(SC)c(CNCC(=O)O)cc2S(=O)(=O)C1 [Example 24, 2-(((3,3-dibutyl-5-(3-fluoro-4-methoxyphenyl)-7-methylthio-1,1-dioxido-2,3,4,5-tetrahydrobenzo[b][1,4]thiazepine-8-yl)methyl)amino)acetic acid] |  |  | A @ 1 (A: 76-100%) | C @ 1 (C: 501-590 min) | A @ 5 (A: 76-100%) | A @ 5 (A: 301-400 min)
